Measurements from patent US20130029989A1, “TOPICAL TREATMENTS FOR PAIN” (The Royal Institution for the Advancement of …, priority 2010, published 2013).

Legend:
Format in all cases: in vivo, rat
CPIP rats [1] = assay: Mechanical allodynia (von Frey paw withdrawal threshold) after topical ointment in CPIP rats (model of CRPS-I); details: for anti-allodynic effect (PWT to von Frey hair stimulation): single drug; for effectiveness of the agent when administered topically in the combinations: apraclonidine 0.005%, clonidine 0.0075%, lisofylline 0.0078%-0.075%, pentoxifylline 0.3 or 0.6%, linsidomine 0.4%
Method: Ointment type analgesic formulations containing the above-mentioned drugs were prepared according to standard pharmaceutical procedures. The ointments were formulated using a composite, water-soluble polyethylene glycol base system employing carbowax (PEG 3350) and PEG 400 in the ratio of 60:40 respectively. The water-soluble base system was selected due to its non-sticky nature. Briefly, the required amounts of the active ingredients were first weighed out and then added to the already molten base in decreasing order of their melting points, and stirred well. After uniform melting, the formulation was brought to room temperature to ensure proper solidification. A standard amount of 150 mg (mean±SEM=150.88+2.7 mg) of the ointment was used for all rat hind paw applications throughout the experimental procedure, and half this amount for mouse hind paw application.
(§1) Chronic post-ischemia pain (CPIP) was generated following exposure to prolonged hind paw ischemia and reperfusion (Coderre et al., Pain, 112(1):94-105, 2004). Briefly, rats were anesthetized over a 3 h period with a bolus (55 mg/kg, i.p.) followed by chronic i.p. infusion of sodium pentobarbital for 2 h at a rate of 0.15 mL/h. After induction of anesthesia, a Nitrile 70 Durometer O-ring (O-rings West, Seattle, Wash.) with 5.5 mm internal diameter was placed around the rat's left hind limb proximal to the ankle joint. The tight-fitting O-rings produce a complete blockade of arterial blood flow as measured using laser Doppler flowmetry. The ring was then left in place for 3 h. The termination of sodium pentobarbital anesthesia was timed so that the rats recovered fully within 30-60 min following reperfusion. Rats were tested between 2 and 14 days post-IR injury.
(§2) The plantar surface of the ipsilateral hind paw was tested for mechanical allodynia in CPIP and CCI rats. Nylon monofilaments were applied in either ascending (after negative response) or descending (after positive response) force as necessary to determine the filament closest to the threshold of response. Each filament was applied for 10 s or until a flexion reflex occurred. The minimum stimulus intensity was 1 g and the maximum was 15 g. Based on the response pattern, and the force of the final filament (5th stimulus after first direction change), the 50% threshold (grams) was calculated as (10[Xf+kδ])/10000 where Xf=filament number of the final von Frey hair used, k=value for the pattern of positive/negative responses and δ=mean difference in log unit between stimuli (here, δ=0.220, for more details see Chaplan et al., J. Neurosci. Methods, 53(1):55-63, 1994). Mechanical sensitivities were assessed prior to and following several pharmacological treatments.
The topical formulations containing a nitric oxide donor, an α2-adrenergic agonist or a phosphatidic acid inhibitor were tested for their anti-allodynic effects either singly or in combination with each other in definite proportions at concentrations for single agents selected from the published literature in different animal models of pain. Accordingly, the rats received 150 mg of the respective ointment with the first half on the plantar aspect of their hind paws followed by the second half applied on the dorsal surface; in both cases by uniform gentle application using fingers.
In separate groups of rats, formulations containing pentoxifylline or lisofylline were tested in specific drug combinations with constant percentage amounts of clonidine, linsidomine, SNAP or apraclonidine. […] Accordingly, the formulations tested in the combination trials included clonidine (0.0075% W/W) with pentoxifylline (0.3, 0.6 and 1.2% WAN), linsidomine (0.4% W/W) with pentoxifylline (0.075, 0.15 and 0.3% W/W), linsidomine (0.4% W/W) with lisofylline (0.03175, 0.0625 and 0.075% W/W), SNAP (0.0625% W/W) with lisofylline (0.008, 0.015, 0.033 and 0.063% W/W) and apraclonidine (0.005% W/W) with lisofylline (0.0078, 0.0156 and 0.0313% W/W). […]

CPIP rats [2] = assay: Laser Doppler post-occlusive reactive hyperemia in CPIP rats, systemic pentoxifylline; details: 25 mg/kg i.p.
Method: as §1, with “The termination of sodium pentobarbital anesthesia was timed so that the rats recovered fully within 30-60 min following reperfusion. Rats were tested between 2 and 14 days post-IR injury.” left out
Plantar blood flow and post-occlusive reactive hyperemia were measured using a laser Doppler perfusion and temperature monitor (DRT4, Moor Instruments, Wilmington, Del.) to assess microvascular function (Morales et al., Microvasc. Res., 69(1-2):17-23, 2005). […] Body temperature was monitored through a rectal thermometer coupled to a heating pad (FHC, Bowdoinham, Me.), and was maintained between 37.5° C. and 39.0° C. throughout the experiment. The plantar blood flow of the ipsilateral hind paw was monitored using a laser-emitting probe placed in between the tori pads of the hind paw, along the midline. […]

CPIP rats [3] = assay: Mechanical allodynia (von Frey PWT) in CPIP rats after systemic pentoxifylline; details: vs vehicle
Method: as §1, with “The termination of sodium pentobarbital anesthesia was timed so that the rats recovered fully within 30-60 min following reperfusion. Rats were tested between 2 and 14 days post-IR injury.” left out
as §2, with “Nylon monofilaments were applied in either ascending (after negative response) or descending (after positive response) force as necessary to determine the filament closest to the threshold of response. Each filament was applied for 10 s or until a flexion reflex occurred. The minimum stimulus intensity was 1 g and the maximum was 15 g.” left out

sham rats = assay: Laser Doppler post-occlusive reactive hyperemia in sham rats, systemic pentoxifylline; details: 25 mg/kg i.p.
Method: Plantar blood flow and post-occlusive reactive hyperemia were measured using a laser Doppler perfusion and temperature monitor (DRT4, Moor Instruments, Wilmington, Del.) to assess microvascular function (Morales et al., Microvasc. Res., 69(1-2):17-23, 2005). Briefly, rats (n=6 for each group) were anesthetized with bolus (1 g/kg) and maintenance doses (200 mg/kg prn) of urethane, and placed in the prone position. Body temperature was monitored through a rectal thermometer coupled to a heating pad (FHC, Bowdoinham, Me.), and was maintained between 37.5° C. and 39.0° C. throughout the experiment. The plantar blood flow of the ipsilateral hind paw was monitored using a laser-emitting probe placed in between the tori pads of the hind paw, along the midline. […] At the rate of one sample per second, an initial 10 minute baseline blood flux was recorded, followed by a 2 minute occlusion induced by pressurizing and inflating a tight fitting loop of Tygon® R 3603 tubing (outside diameter=2.38 mm, inside diameter=0.79 mm, wall thickness=0.79 mm) connected to an air-filled pump-driven 60 mL syringe (Model 11, Harvard Apparatus, Montreal, QC), creating a tourniquet around the ankle joint. […] Post-occlusive reactive hyperemia was monitored by continuously sampling flux at the rate of 1/sec for 2 min following the onset of reperfusion. […]

`CC(=O)N[C@H](C(=O)O)C(C)(C)SN=O` [SNAP, S-nitroso-N-acetyl-penicillamine] was tested, and the “anti-allodynic effect (PWT to von Frey hair stimulation)” value (“anti-allodynic effect” below) (CPIP rats [1]; topical ipsilateral, 0.0625% W/W (lowest)) was “inactive” and the “anti-allodynic effect” value (CPIP rats [1]; topical ipsilateral, all concentrations except the lowest (0.125, 0.25 and 0.5% W/W)) was “significant effects”.

For `Nc1cc(Cl)c(N=C2NCCN2)c(Cl)c1` [apraclonidine], the “effectiveness of the agent when administered topically in the combinations” value (shortened to “effectiveness of the agent”) (CPIP rats [1]) was “highly effective”, the “anti-allodynic effect” value (CPIP rats [1]; topical ipsilateral, 0.005% W/W (lowest)) was “inactive” and the “anti-allodynic effect” value (CPIP rats [1]; topical ipsilateral, all concentrations except the lowest (0.01, 0.02 and 0.04% W/W)) was “effective against mechanical allodynia”.

In the case of `Clc1cccc(Cl)c1N=C1NCCN1` [clonidine], the “effectiveness of the agent” value (CPIP rats [1]) was “highly effective”, the “anti-allodynic effect” value (CPIP rats [1]; topical ipsilateral, 0.0075% W/W) was “inactive” and the “anti-allodynic effect” value (CPIP rats [1]; topical ipsilateral, 0.03% W/W) was “significant anti-allodynic effects”. The “anti-allodynic effect” value (CPIP rats [1]; topical ipsilateral, 0.06% W/W) was “significant anti-allodynic effects”.

`[NH-]c1c[n+](N2CCOCC2)no1` [linsidomine] was tested, and the “effectiveness of the agent” value (CPIP rats [1]) was “highly effective”, the “anti-allodynic effect” value (CPIP rats [1]; topical ipsilateral, 0.4% W/W) was “inactive” and the “anti-allodynic effect” value (CPIP rats [1]; topical ipsilateral, 0.8% W/W, post drug vs pre-drug) was “significantly different from their pre-drug values”. The “anti-allodynic effect” value (CPIP rats [1]; topical ipsilateral, 1.6% W/W, post drug vs pre-drug) was “significantly different from their pre-drug values”.

For `C[C@@H](O)CCCCn1c(=O)c2c(ncn2C)n(C)c1=O` [lisofylline], the “effectiveness of the agent” value (CPIP rats [1]) was “highly effective”, the “anti-allodynic effect” value (CPIP rats [1]; topical ipsilateral, lowest concentration 0.063% W/W) was “inactive” and the “anti-allodynic effect” value (CPIP rats [1]; topical ipsilateral, the three higher concentrations (0.09, 0.125 and 0.25% W/W)) was “only the lowest concentration (0.063% W/W) was observed to be inactive”.

In the case of `CC(=O)CCCCn1c(=O)c2c(ncn2C)n(C)c1=O` [pentoxifylline], the “effect on delayed post-occlusive reactive hyperemia (microvascular dysfunction)” value (CPIP rats [2]) was “reversed”, the “allodynia (PWT to von Frey hair stimulation)” value (CPIP rats [3]; 25 mg/kg) was “attenuated allodynia” and the “allodynia (PWT to von Frey hair stimulation)” value (CPIP rats [3]; 50 mg/kg) was “attenuated allodynia”. For the same molecule, the “effect on normal post-occlusive reactive hyperemia” value (sham rats) was “no effect”, the “effectiveness of the agent” value (CPIP rats [1]) was “highly effective” and the “anti-allodynic effect” value (CPIP rats [1]; topical ipsilateral hind paw, 5% W/W, 45 min post-application) was “significantly attenuated mechanical allodynia”. For the same molecule, the “anti-allodynic effect” value (CPIP rats [1]; topical ipsilateral, 0.6% W/W) was “devoid of any effect” and the “anti-allodynic effect” value (CPIP rats [1]; topical ipsilateral, 1.2% W/W) was “devoid of any effect”.
